Reference: patent US8105577B1, “Prebiotic composition for increasing probiotic growth rate and activity” (Master Supplements, Inc., priority 2010, dated 2012)

What was measured:
Type in all cases: cell-based
[1] = system: Lactobacillus rhamnosus Lr-32 (LR-44); test: Growth (turbidity) and lactic acid producing activity in MRS broth, L. rhamnosus Lr-32; conditions: for pH: 0.1% in MRS (polysorbate 80 1.0 g/liter)
Procedure: (§1) Each flask was tempered to 37° C. and aseptically inoculated with 0.14 gm of the individual probiotic strains (in Examples 5 to 10 below) to be tested. At specified time intervals, a 30 ml sample from each flask was aseptically transferred into a HACH […] Turbidimeter sample cell. The turbidity of each sample was read and the results were reported in NTU's. The same 30 ml sample used for the turbidity reading was transferred into a 250 ml glass beaker, and the pH was recorded. The sample was titrated using 0.1N NaOH to an endpoint of pH 6.8, and the quantity of NaOH used was recorded. The % Lactic Acid was calculated using the following formula: % Lactic Acid=((mls of 0.1N NaOH)×(0.1N)×(90 gm/mole)×(1 L/1000 ml))×100 mls of sample % Lactic Acid=(mls of 0.1N NaOH)×(0.9) (Results reported at 12 hours and 23 hours like: 12/23 in Table IV below)

[2] = system: Lactobacillus acidophilus NCFM (LA-1); test: Growth (turbidity) and lactic acid producing activity in MRS broth, L. acidophilus NCFM; conditions: for pH: 0.1% in MRS (polysorbate 80 1.0 g/liter)
Procedure: as §1, with “At” for “Each flask was tempered to 37° C. and aseptically inoculated with 0.14 gm of the individual probiotic strains (in Examples 5 to 10 below) to be tested. At”, “I” for “IV”

[3] = system: Lactobacillus paracasei Lpc-37 (F-19); test: Growth (turbidity) and lactic acid producing activity in MRS broth, L. paracasei Lpc-37
Procedure: as §1, with “III” for “IV”

[4] = system: THERALAC® Lot #32310A probiotic strains; test: Growth of the commercial probiotic […] in MRS broth (turbidity, lactic acid, pH); conditions: for pH: 0.1% in MRS (polysorbate 80 1.0 g/liter)
Procedure: MRS broth was prepared with (for controls) and without (for tests) polysorbate 80 and filled into 1 liter screw cap flasks at 500 ml each and autoclaved at 121° C. for 30 minutes. Various lecithin and/or oleic acid additives, or nothing (negative control), was added to the tests flasks prior to autoclaving. The flasks were then tempered to 37° C. in a water bath and inoculated at 0.1% with […]® Lot #32310A, a commercial probiotic product (Master Supplements, Inc., Victoria, Minn.). Capsules of […]® were opened and the contents mixed aseptically to serve as the inoculum source. At an inoculation rate of 0.1%, approximately 80 million CFU was added per ml of MRS media. […]® contains (formulation strength) the following probiotic strains at the approximate CFU values listed per gram: Turbidity, pH and titrations (made with 0.1 N NaOH and reported as % lactic acid) were made at various times up to 23 hours. The results are presented below in Table VI for the 12 and 23-hour analyses.

[5] = system: Lactobacillus salivarius Ls-33 (LS-30); test: Growth (turbidity) and lactic acid producing activity in MRS broth, L. salivarius Ls-33; conditions: for pH: 0.1% in MRS (polysorbate 80 1.0 g/liter)
Procedure: as §1, with “V” for “IV”

[6] = system: Bifidobacterium lactis Bl-04 (BL-34); test: Growth (turbidity) and lactic acid producing activity in MRS broth, B. lactis Bl-04; conditions: 0.1% in MRS (polysorbate 80 1.0 g/liter)
Procedure: as §1, with “II” for “IV”

[7] = 0.1% in MRS (polysorbate 80 1.0 g/liter), 12 hours

| Compound | effectiveness as polysorbate 80 replacement, in words ([1]; 0.1% inclusion rate in MRS) | effectiveness as polysorbate 80 replacement (growth and lactic acid production), in words ([2]; 0.1% inclusion rate in MRS) | effectiveness as polysorbate 80 replacement, in words ([3]; 0.1% inclusion rate in MRS) | effectiveness as polysorbate 80 replacement, in words ([4]; 0.1% inclusion rate in MRS) | effectiveness as polysorbate 80 replacement, in words ([5]; 0.1% inclusion rate in MRS) | pH ([1]; 12 hours) | pH ([1]; 23 hours) | pH ([2]; 12 hours) | pH ([2]; 23 hours) | Lactic Acid % ([6]; 12 hours) | pH ([6]; 12 hours) | Lactic Acid % ([6]; 23 hours) | pH ([6]; 23 hours) | Lactic Acid % [3, 7] | pH [3, 7] | pH ([3]; 0.1% in MRS (polysorbate 80 1.0 g/liter), 23 hours) | pH ([4]; 12 hours) | pH ([4]; 23 hours) | pH ([5]; 12 hours) | pH ([5]; 23 hours) |
| --- | --- | --- | --- | --- | --- | --- | --- | --- | --- | --- | --- | --- | --- | --- | --- | --- | --- | --- | --- | --- |
| CCCCCCCC/C=C\CCCCCCCC(=O)O [Oleic Acid, oleic acid] | shows an improvement over no polysorbate 80 on the 23-hour test but shows a significant lag phase at 12 hours; it is not as good a replacement for polysorbate 80 as sunflower lecithin | somewhat effective as a polysorbate 80 replacement but not as effective as either sunflower or soy lecithin | shows an improvement over no polysorbate 80 but is not as effective a replacement for polysorbate 80 as sunflower lecithin | acceptable replacement value for polysorbate 80 but is not as effective as either of the lecithins | not as good a replacement as a lag phase is apparent at 12 hours | – | – | – | – | – | – | – | – | – | – | – | – | – | – | – |
| polysorbate 80 | – | – | – | – | – | 4.0 | 3.7 | 4.2 | 4.1 | 0.57% | 4.8 | 0.84% | 4.5 | 0.99% | 4.2 | 3.9 | 3.9 | 3.7 | 3.8 | 3.7 |
